Test results from patent publication US5614539A, “Urea compounds which are useful as platelet aggregation inhibitors” (G. D. Searle & Co., priority 1995, dated 1997).

Tested on: Dog PRP (platelet aggregation)
Assay: In-Vitro Platelet Aggregation in PRP (ADP-induced)
Type: cell-based
Conditions: Canis lupus familiaris; dog platelet-rich plasma; ADP 50 um final concentration; 1 minute preincubation at 37° C.; read-out: Dog PRP IC50 or % Inh.
Procedure: In-Vitro Platelet Aggregation in PRP
Healthy male or female dogs were fasted for 8 hours prior to drawing blood; then 30 ml whole blood was collected using a butterfly needle and 30 cc plastic syringe with 3 ml of 0.129M buffered sodium citrate (3.8%). The syringe was rotated carefully as blood was drawn to mix the citrate. Platelet-rich plasma (PRP) was prepared by centrifugation at 975×g for 3.17 minutes at room temperature allowing the centrifuge to coast to a stop without braking. The PRP was removed from the blood with a plastic pipette and placed in a plastic capped, 50 mL Corning conical sterile centrifuge tube which was held at room temperature. Platelet poor plasma (PPP) was prepared by centrifuging the remaining blood at 2000×g for 15 minutes at room temperature allowing the centrifuge to coast to a stop without braking. The PRP was adjusted with PPP to a count of 2-3×10^8 platelets per mL. 400 uL of the PRP preparation and 50 uL of the compounds solution to be tested or saline were preincubated for 1 minute at 37° C. in a […].). 50 uL of adenosine 5' diphosphate (ADP) (50 um final concentration) was added to the cuvettes and the aggregation was monitored for 1 minute. […] Results are calculated as follows: Percent of control=[(maximal OD minus initial OD of compound) divided by (maximal OD minus initial OD of control saline)]×100. […]

Row | SMILES | IC50
1 | N=C(N)NCCCCCCCNC(=O)NC(CC(=O)O)c1cccnc1 (stereo not drawn) [Example 2, β-[[[[7-[[aminoiminomethyl]amino]heptyl]amino]carbonyl]amino]-3-pyridinepropanoic acid] | 800 nM
2 | N=C(N)NCCCCCCCNC(=O)N[C@@H](CC(=O)O)C(=O)N[C@@H](Cc1ccccc1)C(=O)O [Example 4, N-[N-[[[[7-[[aminoiminomethyl]amino]heptyl]amino]carbonyl]amino]-L-α-aspartyl]-L-phenylalanine] | 1900 nM
